Experimental data: EP4559923A1, “ANTIHISTAMINE COMPOUND, AND PREPARATION METHOD THEREFOR AND USE THEREOF” (HC Synthetic Pharmaceutical Co., Ltd., priority 2022, dated 2024)
Converted amounts (≈) assume the structure as drawn.

Tests used:
[1] = test system: isolated ileal smooth muscle; experiment: Muscle tone of isolated ileal smooth muscle of guinea pigs, compound alone; conditions: Table 3, no histamine, X±s, n = 8; for Smooth muscle tone (g) After administration: 5 minutes after adding the drug; for Antispasmodic percentage (%): relative to tone before adding compound, 5 min
Experimental: (§1) The guinea pig was knocked unconscious with a wooden stick, and the abdomen was immediately dissected to separate the ileum about 15 cm in length. The contents of the intestinal segment were flushed with Tyrode's solution and placed in Tyrode's solution at a constant temperature of 37°C for later use, and oxygen was supplied simultaneously. The experimental intestinal tract (1 cm in length) was cut and placed into 20 ml of Tyrode's solution at a constant temperature of 37°C with a continuous oxygen supply. One end of the intestine was fixed on the ventilation hook and the other end was connected to the muscle tone transducer and led to the computer interface. The muscle tone value of the ileal smooth muscle was recorded with a BL system. The experiment was carried out after the intestinal segment contraction became stable.
After the ileum contraction curve stabilized, the tone values before adding the drug were recorded, then the drug or DMSO was added, and the average tone value of the ileum contraction curve at that point was recorded 5 minutes later. The operation was repeated 8 times. The antispasmodic percentage was calculated according to the following formula. Antispasmodic percentage =; (Tone value before adding subject compound−Tone value after adding subject compound)/(Tone value before adding subject compound) × 100% [formula]

[2] = Solubility in water, methanol and isopropanol; conditions: for solubility Isopropanol: in isopropanol; for solubility Methanol: in methanol; for solubility Water: in water
Experimental: The solubility in water, methanol, and isopropanol of the compounds of the present disclosure and the comparative compounds were measured separately.

histamine = experiment: Muscle tone of isolated ileal smooth muscle of guinea pigs contracted with histamine; conditions: Table 4, x±s, n = 8; for Antispasmodic percentage (%): relative to tone after adding histamine, 3 min; for Smooth muscle tone (g) After addition of histamine: after 0.05 mL of histamine, before compound; for Smooth muscle tone (g) Before administration: before histamine and compound
Experimental: as §1
(§2) After the ileal peristalsis curve stabilized, the tone values before adding the compound were recorded, and then 0.05 mL of histamine was added. […] The operation was repeated 8 times. The antispasmodic percentage was calculated using the following equation. Antispasmodic percentage; = (Tone value after adding histamine−Tone value after adding subject compound)/(Tone value after adding histamine) × 100% [formula]

[3] = as above; conditions: Table 4; 3 minutes after adding 0.05 mL compound at maximum histamine contraction; x±s, n = 8
Experimental: as §1, §2

histamine-induced asthma = experiment: Antiasthmatic effect on histamine-induced asthma in guinea pigs (latency period); type: in vivo; conditions: X±s, n = 5; for Post-administration latency period: 1 mg/kg oral gavage, sixty minutes after administration, histamine hydrochloride spray, no asthma within 8 minutes counted as 8 minutes
Experimental: The guinea pigs were placed in a polymethyl methacrylate bell jar and a histamine hydrochloride solution was sprayed ultrasonically (0.8 mg/mL) for 40 seconds. The time point at which the guinea pigs developed asthma was recorded. The time of convulsion and fall was taken as the latency period. Guinea pigs with a latency period exceeding 180 seconds were not selected. […] The guinea pigs were administered by oral gavage at a dose of 2 mL/kg·bw. Sixty minutes after the administration, the guinea pigs were placed in bell jars, and histamine hydrochloride solution was sprayed under the same conditions as in the previous selection. The latency period for the onset of asthma was recorded. […] The results were processed statistically.

[4] = Accelerated stability test; type: physicochemical; conditions: 40°C ± 2°C, relative humidity 75% ± 5%; for remaining at 730 h / remaining at 1460 h / remaining at 2190 h / remaining at 4380 h: storage 75% relative humidity, read-out: Content

SMILES	Smooth muscle tone (g) After administration [1] [g]	Antispasmodic percentage (%) [1] [%]	solubility Isopropanol [2] [mg/mL]	solubility Methanol [2] [mg/mL]	solubility Water [2]	Antispasmodic percentage (%) (histamine)	Smooth muscle tone (g) After administration [3] [g]	Post-administration latency period (histamine-induced asthma) [s]	Content ([4]; Month 0) [%]	Description ([4]; Month 0)	Related substances ([4]; Month 0) [%]	Description ([4]; Month 1)	Related substances ([4]; Month 1) [%]	Description ([4]; Month 2)	Related substances ([4]; Month 2) [%]	Description ([4]; Month 3)	Related substances ([4]; Month 3) [%]	Description ([4]; Month 6)	Related substances ([4]; Month 6) [%]	remaining at 730 h ([4]; Month 1) [%]	other results
O=P(O)(O)OCCCCCN1CCC(=C2c3ccc(Cl)cc3CCc3cccnc32)CC1 [Compound IV-7]	1.16 ± 0.27	31.76±18.66	4 (≈ 8.39 mM)	27 (≈ 56.6 mM)	287 mg/mL (≈ 602 mM)	66.76±19.32	1.15 ± 0.23	367.32 ± 53.01	99.6	White powder	0.03	White powder	0.06	White powder	0.09	White powder	0.13	White powder	0.28	99.6	remaining at 1460 h ([4]; Month 2): 99.5%; remaining at 2190 h ([4]; Month 3): 99.5%; remaining at 4380 h ([4]; Month 6): 99.3%
OCCCCN1CCC(=C2c3ccc(Cl)cc3CCc3cccnc32)CC1 [Hydroxybutyl desloratadine, hydroxybutyl desloratadine, reference compound]	1.30 ± 0.23	23.53±12.32	–	–	Practically insoluble	–	1.44 ± 0.44	279.71 ± 54.91	–	–	–	–	–	–	–	–	–	–	–	–	Smooth muscle tone (g) After addition of histamine (histamine): 3.41 ± 0.92 g; Smooth muscle tone (g) Before administration (histamine): 1.73 ± 0.12 g
O=P(O)(O)OCCCCN1CCC(=C2c3ccc(Cl)cc3CCc3cccnc32)CC1 [Compound IV-5]	1.19 ± 0.27	31.60±20.10	1 (≈ 2.16 mM)	22 (≈ 47.5 mM)	386 mg/mL (≈ 834 mM)	65.70±20.11	1.19 ± 0.23	362.49 ± 50.00	99.5	White powder	0.03	White powder	0.06	White powder	0.10	White powder	0.13	White powder	0.28	–	Content ([4]; Month 1, 43800 min): 99.5%; Content ([4]; Month 2, 87600 min): 99.4%; Content ([4]; Month 3, 131400 min): 99.4%; Content ([4]; Month 6, 262800 min): 99.2%
O=P(O)(O)OCCCCCN1CCC(=C2c3ccc(Cl)cc3CCc3cccnc32)CC1 [Compound III-13]	1.21 ± 0.26	32.02±16.85	25 (≈ 52.4 mM)	–	32 mg/mL (≈ 67.1 mM)	65.58±18.20	1.17 ± 0.20	366.81 ± 53.10	–	–	–	–	–	–	–	–	–	–	–	–	Smooth muscle tone (g) Before administration ([1]; before adding the drug): 1.78 ± 0.25 g; Smooth muscle tone (g) After addition of histamine (histamine): 3.40 ± 0.98 g; Smooth muscle tone (g) Before administration (histamine): 1.80 ± 0.16 g; Pre-administration latency period (histamine-induced asthma; baseline before dosing, histamine hydrochloride spray 0.8 mg/mL for 40 seconds): 104.38 ± 50.27 s
O=P(O)(O)OCCCCN1CCC(=C2c3ccc(Cl)cc3CCc3cccnc32)CC1 [Compound IV-4]	1.14 ± 0.21	33.33±20.91	–	–	–	66.76±19.71	1.16 ± 0.22	380.22 ± 51.19	99.6	White powder	0.03	White powder	0.04	White powder	0.05	White powder	0.06	White powder	0.10	99.6	solubility ([2]; water): 402 mg/mL (≈ 868 mM); remaining at 1460 h ([4]; Month 2): 99.6%; remaining at 2190 h ([4]; Month 3): 99.6%; remaining at 4380 h ([4]; Month 6): 99.5%
O=P(O)(O)OCCCCCN1CCC(=C2c3ccc(Cl)cc3CCc3cccnc32)CC1 [Compound IV-6]	1.14 ± 0.25	34.10±18.93	5 (≈ 10.5 mM)	30 (≈ 62.9 mM)	367 mg/mL (≈ 769 mM)	65.80±19.03	1.18 ± 0.21	361.94 ± 53.19	–	–	–	–	–	–	–	–	–	–	–	–	–
